Measurements: US20240148821A1, “PHARMACEUTICAL USE OF CYCLIC PEPTIDE COMPOUND” (CHUGAI SEIYAKU KABUSHIKI KAISHA, priority 2021, published 2024)
Numbered stars: 1 amine (or outer) side, 2 acyl side, 3 side chain; on linkers, the order of the positions; unused ones are H or OH. Bridge positions count the residues as written; N and C are the ends. Square brackets hold non-standard residues; d marks the D form. Peptide text beside a SMILES is read from it. * marks the point of attachment. hPhe(3,5-F2-4-CF3) = N[C@@H](CCc1cc(F)c(C(F)(F)F)c(F)c1)C(=O)O; hPhe(3-Cl-4-CF3) = N[C@@H](CCc1ccc(C(F)(F)F)c(Cl)c1)C(=O)O; NMePhe(4-CF3) = CN[C@@H](Cc1ccc(C(F)(F)F)cc1)C(=O)O; Pro(cis-4-Ph) = O=C(O)[C@@H]1C[C@H](c2ccccc2)CN1; Piperazinyl(4-(3-oxetanyl)) = C1OCC1N1CCN(*)CC1; NMeAbu(4,4,4-F3) = CN[C@@H](CC(F)(F)F)C(=O)O; NMePhe(4-Cl) = CN[C@@H](Cc1ccc(Cl)cc1)C(=O)O; NMePhe(4-Me) = CN[C@@H](Cc1ccc(C)cc1)C(=O)O; NMePhe(4-F) = CN[C@@H](Cc1ccc(F)cc1)C(=O)O; NMeGly(cPent) = CN[C@H](C(=O)O)C1CCCC1; Phe(3-I) = N[C@@H](Cc1cccc(I)c1)C(=O)O; Pro(4,4-F2) = O=C(O)[C@@H]1CC(F)(F)CN1; X67 = O=C([C@@H]1CCC[C@H]1N[*:1])[*:2]; NMeCha = CN[C@@H](CC1CCCCC1)C(=O)O; NMeChg = CN[C@H](C(=O)O)C1CCCCC1; NMeD = CN[C@@H](CC(=O)O)C(=O)O; NMeL = CN[C@@H](CC(C)C)C(=O)O; NMeNva = CCC[C@H](NC)C(=O)O; NMeV = CN[C@H](C(=O)O)C(C)C; Morpholide = C1CN(*)CCO1; NMeA = CN[C@@H](C)C(=O)O; Nle = CCCC[C@H](N)C(=O)O; Piperidide = C1CCN(*)CC1; Pyrrolidide = C1CCN(*)C1; Ac5c = NC1(C(=O)O)CCCC1; Aze = O=C(O)[C@@H]1CCN1; βAla = NCCC(=O)O; Sar = CNCC(=O)O

Test system: Human pancreatic cancer cell line AsPC-1 (G12D mutation Kras)
Assay: AsPC-1 cell growth inhibition (AsPC-1 CGI)
Format: cell-based
Conditions: read-out: AsPC-1 cell growth inhibition, 50% growth inhibitory concentration (IC50 value); 96 hours, CellTiter-Glo, values classified in ranges
Method: Test compounds were serially dilated with dimethyl sulfoxide, and 200 nL was then dispensed to a U-bottom 96-well plate using Labcyte Echo. […] The cell suspension was dispensed to a. plate containing a test compound at 100 μL per well and incubated at 37° C. in a 5% carbon dioxide gas incubator. 96 hours later, 80 μL of CellTiter-Glo (Promega) was added to each well and fluorescence was measured.

| Structure (SMILES) | IC50 [nM] |
| --- | --- |
| CC[C@H](C)[C@@H]1NC(=O)[C@H](CC(C)C)N(C)C(=O)C[C@@H](C(=O)N2CCCCC2)N(C)C(=O)[C@H](C2CCCCC2)N(C)C(=O)C2(CCCC2)NC(=O)[C@@H]2C[C@H](c3ccccc3)CN2C(=O)[C@H](CCc2ccc(C(F)(F)F)c(Cl)c2)NC(=O)CN(C)C(=O)[C@H](CC2CCCCC2)N(C)C(=O)[C@@H]2CCN2C(=O)[C@H](C)N(C)C1=O [Compound 1053] ([NMeL]I[NMeA][Aze][NMeCha][Sar][hPhe(3-Cl-4-CF3)][Pro(cis-4-Ph)][Ac5c][NMeChg][NMeD]-Piperidide; lactam N-11) | > 500 |
| CC[C@H](C)[C@@H]1NC(=O)[C@H](CC(F)(F)F)N(C)C(=O)C[C@@H](C(=O)N2CCOCC2)N(C)C(=O)[C@H](C2CCCCC2)N(C)C(=O)C2(CCCC2)NC(=O)[C@@H]2CC(F)(F)CN2C(=O)[C@H](CCc2ccc(C(F)(F)F)c(Cl)c2)NC(=O)CN(C)C(=O)[C@H](Cc2ccc(C(F)(F)F)cc2)N(C)C(=O)CN(C)C(=O)CN(C)C1=O [Compound 1182] ([NMeAbu(4,4,4-F3)]I[Sar][Sar][NMePhe(4-CF3)][Sar][hPhe(3-Cl-4-CF3)][Pro(4,4-F2)][Ac5c][NMeChg][NMeD]-Morpholide; lactam N-11) | ≤ 20 |
| CC[C@H](C)[C@@H]1NC(=O)[C@H](CC(C)C)N(C)C(=O)[C@@H]2CCC[C@H]2NC(=O)[C@H](C(C)C)N(C)C(=O)C2(CCCC2)NC(=O)[C@@H]2CCCN2C(=O)[C@H](CCc2ccc(C(F)(F)F)c(Cl)c2)NC(=O)CN(C)C(=O)[C@H](CC2CCCCC2)N(C)C(=O)CN(C)C(=O)CN(C)C1=O [Compound 347] (cyclo([Ac5c][NMeV][X67][NMeL]I[Sar][Sar][NMeCha][Sar][hPhe(3-Cl-4-CF3)]P)) | > 500 |
| CC[C@H](C)[C@@H]1NC(=O)[C@H](CC(C)C)N(C)C(=O)C[C@@H](C(=O)N2CCN(C3COC3)CC2)NC(=O)[C@H](C(C)C)N(C)C(=O)C2(CCCC2)NC(=O)[C@@H]2CCCN2C(=O)[C@H](CCc2ccc(C(F)(F)F)c(Cl)c2)NC(=O)CN(C)C(=O)[C@H](CC2CCCCC2)N(C)C(=O)[C@@H]2CCN2C(=O)[C@H](C)N(C)C1=O [Compound 1294] ([NMeL]I[NMeA][Aze][NMeCha][Sar][hPhe(3-Cl-4-CF3)]P[Ac5c][NMeV]D-{Piperazinyl(4-(3-oxetanyl))}; lactam N-11) | > 500 |
| CCC[C@H]1C(=O)N[C@@H]([C@@H](C)CC)C(=O)N(C)CC(=O)N(C)CC(=O)N(C)[C@@H](Cc2ccc(C)cc2)C(=O)N(C)CC(=O)N[C@@H](CCc2cc(F)c(C(F)(F)F)c(F)c2)C(=O)N2CC(F)(F)C[C@H]2C(=O)NC2(CCCC2)C(=O)N(C)[C@@H](C2CCCCC2)C(=O)N(C)[C@H](C(=O)N2CCCC2)CC(=O)N1C [Compound 1306] ([NMeNva]I[Sar][Sar][NMePhe(4-Me)][Sar][hPhe(3,5-F2-4-CF3)][Pro(4,4-F2)][Ac5c][NMeChg][NMeD]-Pyrrolidide; lactam N-11) | ≤ 20 |
| CC[C@H](C)[C@@H]1NC(=O)[C@H](CC(C)C)N(C)C(=O)C[C@@H](C(=O)N2CCCCC2)NC(=O)[C@H](C(C)C)N(C)C(=O)C2(CCCC2)NC(=O)[C@@H]2CCCN2C(=O)[C@H](CCc2ccc(C(F)(F)F)c(Cl)c2)NC(=O)CN(C)C(=O)[C@H](CC2CCCCC2)N(C)C(=O)CN(C)C(=O)CN(C)C1=O [Compound 417] ([NMeL]I[Sar][Sar][NMeCha][Sar][hPhe(3-Cl-4-CF3)]P[Ac5c][NMeV]D-Piperidide; lactam N-11) | > 500 |
| CC[C@H](C)[C@@H]1NC(=O)[C@H](CC(C)C)N(C)C(=O)C[C@@H](C(=O)N(C)C)N(C)C(=O)[C@H](C2CCCC2)N(C)C(=O)[C@H](C(C)C)NC(=O)[C@@H](C)NC(=O)[C@H](CCc2ccc(C(F)(F)F)c(Cl)c2)NC(=O)CN(C)C(=O)[C@H](CC2CCCCC2)N(C)C(=O)[C@@H]2CCN2C(=O)[C@H](C)N(C)C1=O [Compound 24] ([NMeL]I[NMeA][Aze][NMeCha][Sar][hPhe(3-Cl-4-CF3)][dA]V[NMeGly(cPent)][NMeD]-NMe2; lactam N-11) | > 500 |
| CC[C@H](C)[C@@H]1NC(=O)CCNC(=O)[C@H](Cc2ccc(F)cc2)N(C)C(=O)[C@H](C2CCCCC2)N(C)C(=O)C2(CCCC2)NC(=O)[C@@H]2CCCN2C(=O)[C@H](CCc2ccc(C(F)(F)F)c(Cl)c2)NC(=O)CN(C)C(=O)[C@H](CC2CCCCC2)N(C)C(=O)CN(C)C(=O)CN(C)C1=O [Compound 528] (cyclo([Ac5c][NMeChg][NMePhe(4-F)][βAla]I[Sar][Sar][NMeCha][Sar][hPhe(3-Cl-4-CF3)]P)) | > 500 |
| CCCC[C@@H]1NC(=O)[C@H](Cc2cccc(I)c2)NC(=O)CN(C)C(=O)[C@H](Cc2ccc(Cl)cc2)N(C)C(=O)CN(C)C(=O)CN(C)C(=O)[C@H]([C@@H](C)CC)NC(=O)[C@H](CC(C)C)N(C)C(=O)C[C@@H](C(=O)N2CCCCC2)N(C)C(=O)[C@H](CC(C)C)NC(=O)[C@H](Cc2ccc(C)cc2)N(C)C1=O [Compound 876] ([NMeL]I[Sar][Sar][NMePhe(4-Cl)][Sar][Phe(3-I)][Nle][NMePhe(4-Me)]L[NMeD]-Piperidide; lactam N-11) | > 500 |
